Measurements from patent US10202350B2, “MCT4 inhibitors for treating disease” (Vettore, LLC, priority 2015, dated 2019).

How the values were obtained:
[1] = target: MCT1 (Homo sapiens (Human), UniProt P53985); assay: MCT1-mediated lactate transport in BT20 breast cancer cells; type: cell-based; settings: native MCT1, 10 mM L-lactate, Table 3
Procedure: (§1) 10 μL of a 30 mM DMSO stock of BCECF-AM ester (Life Technologies) is added and the cells are incubated at 37° C. for 5 min. The cells are pelleted (300 g, 5 min), washed once with 1 mL Tyrode's Solution, pH 7.4, re-pelleted (300 g, 5 min), and resuspended in 1 mL Tyrode's Solution, pH 7.4.
(§2) 2.5 μL BCECF-loaded cells, along with either 10 μL DMSO or 100×compound in DMSO, are added to 937.5 μL of Tyrode's Solution in a quartz 1.0 mL cuvette (PerkinElmer, B0631116). […] After establishing baseline BCECF fluorescence (around 10-20 s), 50 μL of 1 M sodium L-lactate (Sigma-Aldrich) is added to the cuvette (final concentration: 50 mM) and rapidly mixed. The time-dependent decrease in BCECF fluorescence (490/440 ratio) may be fit to an exponential decay curve (Prism GraphPad) to determine the rate of lactate transport.
Assay 4: MCT1-Mediated Lactate Transport in BT20 Breast Cancer Cells.
Preparation of BCECF loaded cells are as described for Assay 1. Lactate transport assay is as described for Assay 1, except 10 mM L-lactate (rather than 50 mM) is added.

[2] = target: MCT4 (Homo sapiens (Human), UniProt O15427); assay: MCT4-mediated lactate transport in MDA-MB-231 breast cancer cells; type: cell-based; settings: MDA-MB-231 cells, native MCT4; 50 mM L-lactate
Procedure: as §1, §2
Preparation of BCECF-loaded cells and lactate transport activity may be determined as described for Assay 1.

Chain of MCT1 (P53985 whole entry): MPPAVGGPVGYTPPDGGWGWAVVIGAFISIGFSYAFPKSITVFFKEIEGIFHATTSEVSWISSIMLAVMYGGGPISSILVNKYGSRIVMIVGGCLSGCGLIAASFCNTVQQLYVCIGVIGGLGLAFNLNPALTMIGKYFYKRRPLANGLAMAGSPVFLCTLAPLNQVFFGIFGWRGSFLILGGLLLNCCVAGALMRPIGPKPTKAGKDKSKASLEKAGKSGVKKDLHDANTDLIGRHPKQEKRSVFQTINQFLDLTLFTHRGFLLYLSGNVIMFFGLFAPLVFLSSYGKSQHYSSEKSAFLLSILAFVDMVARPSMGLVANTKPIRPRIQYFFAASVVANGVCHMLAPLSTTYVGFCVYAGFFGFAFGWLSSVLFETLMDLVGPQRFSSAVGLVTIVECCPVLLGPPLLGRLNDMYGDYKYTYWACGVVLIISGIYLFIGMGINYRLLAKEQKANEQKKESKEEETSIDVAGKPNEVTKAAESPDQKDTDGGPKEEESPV
Chain of MCT1 (P35613 140-385 partner): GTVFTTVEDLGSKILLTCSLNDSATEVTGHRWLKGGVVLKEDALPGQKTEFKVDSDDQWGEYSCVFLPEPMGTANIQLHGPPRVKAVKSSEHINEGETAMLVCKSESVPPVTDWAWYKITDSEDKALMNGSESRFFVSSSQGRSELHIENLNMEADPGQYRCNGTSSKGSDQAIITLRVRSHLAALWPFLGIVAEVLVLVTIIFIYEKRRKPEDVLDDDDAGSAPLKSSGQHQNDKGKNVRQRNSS
Chain of MCT4 (O15427 whole entry, looked up): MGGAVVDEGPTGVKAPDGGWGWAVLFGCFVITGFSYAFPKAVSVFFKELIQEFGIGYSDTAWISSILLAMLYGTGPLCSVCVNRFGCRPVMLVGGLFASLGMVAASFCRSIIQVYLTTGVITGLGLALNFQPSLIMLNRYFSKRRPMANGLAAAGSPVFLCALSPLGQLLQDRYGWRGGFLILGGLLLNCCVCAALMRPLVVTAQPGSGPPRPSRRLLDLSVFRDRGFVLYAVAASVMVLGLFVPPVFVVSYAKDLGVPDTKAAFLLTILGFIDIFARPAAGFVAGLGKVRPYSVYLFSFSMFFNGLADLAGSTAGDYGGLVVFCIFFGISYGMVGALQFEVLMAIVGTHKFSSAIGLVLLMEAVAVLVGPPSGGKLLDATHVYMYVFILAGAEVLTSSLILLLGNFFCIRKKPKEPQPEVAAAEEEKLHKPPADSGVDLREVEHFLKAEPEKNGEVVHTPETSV
Chain of MCT4 (P35613 whole entry partner, looked up): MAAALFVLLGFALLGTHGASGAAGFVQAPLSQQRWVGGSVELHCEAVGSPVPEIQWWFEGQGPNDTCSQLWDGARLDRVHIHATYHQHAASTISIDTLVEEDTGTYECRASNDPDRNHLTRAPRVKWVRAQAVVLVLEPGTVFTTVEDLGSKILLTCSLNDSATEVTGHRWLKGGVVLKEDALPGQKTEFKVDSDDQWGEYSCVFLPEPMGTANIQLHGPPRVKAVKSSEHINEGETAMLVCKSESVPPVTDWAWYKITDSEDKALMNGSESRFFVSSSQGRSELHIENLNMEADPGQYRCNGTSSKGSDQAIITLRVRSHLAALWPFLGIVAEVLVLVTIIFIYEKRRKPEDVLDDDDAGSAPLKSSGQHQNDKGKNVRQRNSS

Structure (SMILES) | IC50 [1] | IC50 [2]
CC(C)(OCc1cc(-c2ccsc2)n(Cc2ccccc2Cl)n1)C(=O)O [Example 24, 2-[[1-[(2-Chlorophenyl)methyl]-5-(3-thienyl)pyrazol-3-yl]methoxy]-2-methyl-propanoic acid] | > 100000 nM | 30 nM
CC(C)(OCc1cc(-c2cccs2)n(Cc2ccccc2Cl)n1)C(=O)O [Example 25, 2-[[1-[(2-Chlorophenyl)methyl]-5-(2-thienyl)pyrazol-3-yl]methoxy]-2-methyl-propanoic acid] | 77000 nM | 33 nM
CC(C)COc1cccc(-c2cc(COC(C)(C)C(=O)O)nn2Cc2ccccc2F)c1 [Example 26, 2-[[1-[(2-Fluorophenyl)methyl]-5-(3-isobutoxyphenyl)pyrazol-3-yl]methoxy]-2-methyl-propanoic acid] | 27000 nM | 9.4 nM
CCOc1cccc(-c2cc(COC(C)(C)C(=O)O)nn2Cc2ccccc2Cl)c1 [Example 28, 2-[[1-[(2-Chlorophenyl)methyl]-5-(3-ethoxyphenyl)pyrazol-3-yl]methoxy]-2-methyl-propanoic acid] | 15000 nM | 12 nM
CC(C)Oc1cccc(-c2cc(COC(C)(C)C(=O)O)nn2Cc2ccccc2Br)c1 [Example 29, 2-[[1-[(2-Bromophenyl)methyl]-5-(3-isopropoxyphenyl)pyrazol-3-yl]methoxy]-2-methyl-propanoic acid] | 16000 nM | 3.7 nM
COc1cccc(-c2cc(COC(C)(C)C(=O)O)nn2Cc2ccccc2Br)c1 [Example 30, 2-[[1-[(2-Bromophenyl)methyl]-5-(3-methoxyphenyl)-1H-pyrazol-3-yl]methoxy]-2-methylpropanoic acid] | 27000 nM | 8.8 nM
COc1cccc(-c2cc(COC(C)(C)C(=O)O)nn2Cc2ccccc2C(C)C)c1 [Example 31, 2-[[1-[(2-Isopropylphenyl)methyl]-5-(3-methoxyphenyl)pyrazol-3-yl]methoxy]-2-methyl-propanoic acid] | 42000 nM | 53 nM
COc1cccc(-c2cc(COC(C)(C)C(=O)O)nn2Cc2ccccc2C)c1 [Example 32, 2-[[5-(3-Methoxyphenyl)-1-(o-tolylmethyl)pyrazol-3-yl]methoxy]-2-methyl-propanoic acid] | 83000 nM | 79 nM
CC(C)(OCc1cc(-c2cccc(OCC3CC3)c2)n(Cc2ccccc2Cl)n1)C(=O)O [Example 33, 2-[[1-[(2-Chlorophenyl)methyl]-5-[3-(cyclopropylmethoxy)phenyl]pyrazol-3-yl]methoxy]-2-methyl-propanoic acid] | 9100 nM | 3.2 nM
CC(C)(OCc1cc(-c2cccc(OC(F)(F)F)c2)n(Cc2ccccc2Cl)n1)C(=O)O [Example 34, 2-[[1-[(2-Chlorophenyl)methyl]-5-[3-(trifluoromethoxy)phenyl]pyrazol-3-yl]methoxy]-2-methyl-propanoic acid] | > 11000 nM | 9.3 nM
CC(C)(OCc1cc(-c2cccc(OC3CCC3)c2)n(Cc2ccccc2Cl)n1)C(=O)O [Example 37, 2-[[1-[(2-Chlorophenyl)methyl]-5-[3-(cyclobutoxy)phenyl]pyrazol-3-yl]methoxy]-2-methyl-propanoic acid] | 8400 nM | 7.6 nM
CC(C)(OCc1cc(-c2cccc(CN3CCOCC3)c2)n(Cc2ccccc2Cl)n1)C(=O)O [Example 40, 2-[[1-[(2-Chlorophenyl)methyl]-5-[3-(morpholinomethyl)phenyl]pyrazol-3-yl]methoxy]-2-methyl-propanoic acid] | > 100000 nM | 520 nM
COc1cccc(-c2cc(COC3(C(=O)O)CCC3)nn2Cc2ccccc2Cl)c1 [Example 41, 1-[[1-[(2-Chlorophenyl)methyl]-5-(3-methoxyphenyl)pyrazol-3-yl]methoxy]cyclobutanecarboxylic acid] | 1200 nM | 55 nM
CC(C)(OCc1cc(-c2cccc(OCC3CCC3)c2)n(Cc2ccccc2Cl)n1)C(=O)O [Example 42, 2-[[1-[(2-Chlorophenyl)methyl]-5-[3-(cyclobutylmethoxy)phenyl]pyrazol-3-yl]methoxy]-2-methyl-propanoic acid] |  | 2.6 nM
CC(C)(OCc1cc(-c2cccc(OCC(F)(F)F)c2)n(Cc2ccccc2Cl)n1)C(=O)O [Example 43, 2-[[1-[(2-Chlorophenyl)methyl]-5-[3-(2,2,2-trifluoroethoxy)phenyl]pyrazol-3-yl]methoxy]-2-methyl-propanoic acid] | > 33000 nM | 13 nM
CC(C)(OCc1cc(-c2cccc(OCC3CCCC3)c2)n(Cc2ccccc2Cl)n1)C(=O)O [Example 44, 2-[[1-[(2-Chlorophenyl)methyl]-5-[3-(cyclopentylmethoxy)phenyl]pyrazol-3-yl]methoxy]-2-methyl-propanoic acid] |  | 1.1 nM

Structure (SMILES) | IC50 [1] | IC50 [2]
CC(C)(OCc1cc(-c2cccc(OCC3CCOCC3)c2)n(Cc2ccccc2Cl)n1)C(=O)O [Example 45, 2-[[1-[(2-Chlorophenyl)methyl]-5-[3-(tetrahydropyran-4-ylmethoxy)phenyl]pyrazol-3-yl]methoxy]-2-methyl-propanoic acid] | 12000 nM | 19 nM
CC(C)(OCc1cc(-c2cccc(N3CCOCC3)c2)n(Cc2ccccc2Cl)n1)C(=O)O [Example 46, 2-[[1-[(2-Chlorophenyl)methyl]-5-(3-morpholinophenyl)pyrazol-3-yl]methoxy]-2-methyl-propanoic acid] | 47000 nM | 142 nM
CC(C)(OCc1cc(-c2cscn2)n(Cc2ccccc2Cl)n1)C(=O)O [Example 47, 2-([1-[(o-Chlorophenyl)methyl]-5-(1,3-thiazol-4-yl)-1H-pyrazol-3-yl]methoxy)-2-methylpropionic acid] | > 100000 nM | 410 nM
CC(C)(OCc1cc(-c2cccc(C#N)c2)n(Cc2ccccc2Cl)n1)C(=O)O [Example 48, 2-([1-[(o-Chlorophenyl)methyl]-5-(m-cyanophenyl)-1H-pyrazol-3-yl]methoxy)-2-methylpropionic acid] | 55000 nM | 89 nM
CC(C)(OCc1cc(-c2cncs2)n(Cc2ccccc2Cl)n1)C(=O)O [Example 49, 2-([1-[(o-Chlorophenyl)methyl]-5-(1,3-thiazol-5-yl)-1H-pyrazol-3-yl]methoxy)-2-methylpropionic acid] | 130000 nM | 240 nM
CN(C)c1cccc(-c2cc(COC(C)(C)C(=O)O)nn2Cc2ccccc2Cl)c1 [Example 50, 2-([1-[(o-Chlorophenyl)methyl]-5-[m-(dimethylamino)phenyl]-1H-pyrazol-3-yl]methoxy)-2-methylpropionic acid] | 34000 nM | 70 nM
CC(C)c1cccc(-c2cc(COC(C)(C)C(=O)O)nn2Cc2ccccc2Cl)c1 [Example 51, 2-([1-[(2-Chlorophenyl)methyl]-5-[3-(propan-2-yl)phenyl]-1H-pyrazol-3-yl]methoxy)-2-methylpropanoic Acid] | 6000 nM | 15 nM
COCc1cccc(-c2cc(COC(C)(C)C(=O)O)nn2Cc2ccccc2Cl)c1 [Example 52, 2-([1-[(2-chlorophenyl)methyl]-5-[3-(methoxymethyl)phenyl]-1H-pyrazol-3-yl]methoxy)-2-methylpropanoic acid] | 84000 nM | 190 nM
COc1cccc(-c2cc(COC(C)(C)C(=O)O)nn2Cc2ccccc2)c1 [Example 53, 2-[[1-benzyl-5-(3-methoxyphenyl)-1H-pyrazol-3-yl]methoxy]-2-methylpropanoic acid] | > 100000 nM | 160 nM
COc1cccc(-c2cc(COC(C)(C)C(=O)O)nn2-c2ccccn2)c1 [Example 56, 2-[[5-(3-methoxyphenyl)-1-(pyridin-2-yl)-1H-pyrazol-3-yl]methoxy]-2-methylpropanoic acid] | > 133000 nM | 
COc1cccc(-c2cc(COC(C)(C)C(=O)O)nn2-c2cccc(Cl)c2)c1 [Example 58, 2-[[1-(3-chlorophenyl)-5-(3-methoxyphenyl)-1H-pyrazol-3-yl]methoxy]-2-methylpropanoic acid] | 78000 nM | 
COc1cccc(-c2cc(COC(C)(C)C(=O)O)nn2-c2ccc(Cl)cc2)c1 [Example 59, 2-[[1-(4-chlorophenyl)-5-(3-methoxyphenyl)-1H-pyrazol-3-yl]methoxy]-2-methylpropanoic acid] | 81000 nM | 
CC(C)COc1cccc(-c2cc(COC(C)(C)C(=O)O)nn2Cc2ccccc2)c1 [Example 60, 2-([1-Benzyl-5-[3-(2-methylpropoxy)phenyl]-1H-pyrazol-3-yl]methoxy)-2-methylpropanoic Acid] | 44000 nM | 13 nM
CC(C)(OCc1cc(Cc2ccccc2)n(Cc2ccccc2Cl)n1)C(=O)O [Example 77, 2-([5-Benzyl-1-[(2-chlorophenyl)methyl]-1H-pyrazol-3-yl]methoxy)-2-methylpropanoic Acid] | 9000 nM | 
CC(C)(OCc1cc(-c2cccc(OCC3COC3)c2)n(Cc2ccccc2Cl)n1)C(=O)O [Example 80, 2-[[1-[(2-Chlorophenyl)methyl]-5-[3-(oxetan-3-ylmethoxy)phenyl]pyrazol-3-yl]methoxy]-2-methyl-propanoic Acid] |  | 81 nM
